Results reported in the supplement of paper PMC11061612.

Assays:
[1] = compound: C1CC(C1)(C(=O)[O-])C(=O)[O-].N.N.[Pt+2] [Carboplatin]; conditions: max 10 µM
Method in brief: (§1)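 Cancer cell lines were seeded in 1536-well plates in 7.5 μl DMEM/F12 or RPMI with 10% FBS, held 24 hours at 37°C and 5% CO2, then dosed for 72 hours (final DMSO typically 0.2%). Viability was read by CellTiter-Glo 2.0 luminescence and scaled between blank-well and DMSO-well means. The single-agent IC50 comes from dose responses fitted to a two-parameter logistic curve with a non-linear mixed effects model.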

[2] = compound: C1CN(CCC1(C(=O)N[C@@H](CCO)C2=CC=C(C=C2)Cl)N)C3=NC=NC4=C3C=CN4 [AZD5363]; conditions: max 10 µM
Method in brief: as §1

[3] = compound: C=CCn1c(=O)c2cnc(Nc3ccc(N4CCN(C)CC4)cc3)nc2n1-c1cccc(C(C)(C)O)n1 [AZD1775]
Method in brief: as §1

[4] = compound: CC(=O)Nc1cccc(-n2c(=O)n(C3CC3)c(=O)c3c(Nc4ccc(I)cc4F)n(C)c(=O)c(C)c32)c1 [Trametinib]; conditions: max 1 µM
Method in brief: as §1

[5] = compound: CC(=O)O[C@H]1C(=O)[C@@]2(C)[C@H]([C@H](OC(=O)c3ccccc3)[C@]3(O)C[C@H](OC(=O)[C@H](O)[C@@H](NC(=O)c4ccccc4)c4ccccc4)C(C)=C1C3(C)C)[C@]1(OC(C)=O)CO[C@@H]1C[C@@H]2O [Paclitaxel]; conditions: max 3 µM
Method in brief: as §1

[6] = compound: CC(=O)c1c(C)c2cnc(Nc3ccc(N4CCNCC4)cn3)nc2n(C2CCCC2)c1=O [Palbociclib]; conditions: max 10 µM
Method in brief: as §1

[7] = compound: CC(C)n1c(=O)n(C)c2cnc3cc(F)c(-c4ccc(OCCCN5CCCCC5)nc4)cc3c21 [AZD1390]; conditions: max 0.3 µM
Method in brief: as §1

[8] = compound: CC1(C)CCC(CN2CCN(c3ccc(C(=O)NS(=O)(=O)c4ccc(NCC5CCOCC5)c([N+](=O)[O-])c4)c(Oc4cnc5[nH]ccc5c4)c3)CC2)=C(c2ccc(Cl)cc2)C1 [Venetoclax]; conditions: max 1 µM
Method in brief: as §1

[9] = compound: CC1=C(C(=CC=C1)Cl)NC(=O)C2=CN=C(S2)NC3=CC(=NC(=N3)C)N4CCN(CC4)CCO [Dasatinib]; conditions: max 2 µM
Method in brief: as §1

[10] = compound: CC1=CN2[C@@H](C1)C=NC3=CC(=C(C=C3C2=O)OC)OCCCCCOC4=C(C=C5C(=C4)N=C[C@@H]6CC(=CN6C5=O)C)OC [SG3199]; conditions: max 0.001 µM
Method in brief: as §1

[11] = compound: CCN(CCO)CCCOc1ccc2c(Nc3cc(CC(=O)Nc4cccc(F)c4)[nH]n3)ncnc2c1 [AZD2811]; conditions: max 1 µM
Method in brief: as §1

[12] = compound: CCc1c2c(nc3ccc(O)cc13)-c1cc3c(c(=O)n1C2)COC(=O)[C@]3(O)CC [SN-38]; conditions: max 0.3 µM
Method in brief: as §1

[13] = compound: CN(C)CCCOc1ccc(-c2ccc3ncc4c(c3c2)n(C2CCOCC2)c(=O)n4C)cn1 [AZD0156]
Method in brief: as §1

[14] = compound: CN(CC[C@H](CSC1=CC=CC=C1)NC2=C(C=C(C=C2)S(=O)(=O)NC(=O)C3=CC=C(C=C3)N4CCC(CC4)[C@H](C5=CC=CC=C5C6=CC=C(C=C6)Cl)O)S(=O)(=O)C(F)(F)F)CCO [AZD4320]; conditions: max 1 µM
Method in brief: as §1

[15] = compound: COc1cc(Nc2ncc3c(n2)-c2ccc(Cl)cc2C(c2c(F)cccc2OC)=NC3)ccc1C(=O)O [Alisertib]; conditions: max 10 µM
Method in brief: as §1

[16] = compound: COc1cc([C@@H]2c3cc4c(cc3[C@@H](O[C@@H]3O[C@@H]5CO[C@@H](C)O[C@H]5[C@H](O)[C@H]3O)[C@H]3COC(=O)[C@H]23)OCO4)cc(OC)c1O [Etoposide]; conditions: max 10 µM
Method in brief: as §1

[17] = compound: COc1cc2ncnc(Nc3ccc(F)c(Cl)c3)c2cc1OCCCN1CCOCC1 [Gefitinib]; conditions: max 10 µM
Method in brief: as §1

[18] = compound: COc1cccc(OCCCN)c1-c1cc(Nc2cnc(C#N)cn2)n[nH]1 [Prexasertib]; conditions: max 1 µM
Method in brief: as §1

[19] = compound: COc1cccc2c1C(=O)c1c(O)c3c(c(O)c1C2=O)C[C@@](O)(C(=O)CO)C[C@@H]3O[C@H]1C[C@H](N)[C@H](O)[C@H](C)O1 [Doxorubicin]; conditions: max 1 µM
Method in brief: as §1

[20] = compound: COc1nnc2ccc(N3CCC(c4ccc(OCCN5CCN(C)C(=O)[C@H]5C)cc4)CC3)nn12 [AZD5153]; conditions: max 1 µM
Method in brief: as §1

[21] = compound: CS(=O)(=O)CCNCc1ccc(-c2ccc3ncnc(Nc4ccc(OCc5cccc(F)c5)c(Cl)c4)c3c2)o1 [Lapatinib]; conditions: max 10 µM
Method in brief: as §1

[22] = compound: C[C@@H](Nc1cc(F)cc(F)c1)c1cc(C(=O)N(C)C)cc2c(=O)cc(N3CCOCC3)oc12 [AZD8186]; conditions: max 10 µM
Method in brief: as §1

[23] = compound: C[C@@H](Oc1cc(-c2cnn(C3CCNCC3)c2)cnc1N)c1c(Cl)ccc(F)c1Cl [Crizotinib]; conditions: max 10 µM
Method in brief: as §1

[24] = compound: C[C@@H](c1ccc2nccn2c1)n1nnc2ncc(-c3cnn(C)c3)nc21 [Savolitinib]; conditions: max 1 µM
Method in brief: as §1

[25] = compound: C[C@@H]1COCCN1C2=NC(=NC(=C2)C3(CC3)[S@](=N)(=O)C)C4=C5C=CNC5=NC=C4 [AZD6738]; conditions: max 10 µM
Method in brief: as §1

[26] = compound: Cc1c2c(nn1C)CSCc1cc(n(C)n1)CSc1cc(c3ccccc3c1)OCCCc1c(C(=O)O)n(C)c3c-2c(Cl)ccc13 [AZD5991]; conditions: max 1 µM
Method in brief: as §1

[27] = compound: Cc1cc2ncnn2cc1Nc1ncc2c(n1)n(C1CCOCC1)c(=O)n2C [AZD7648]; conditions: max 10 µM
Method in brief: as §1

[28] = compound: Cc1nc(-c2cn3c(n2)-c2ccc(-c4cnn(C(C)(C)C(N)=O)c4)cc2OCC3)n(C(C)C)n1 [Taselisib]; conditions: max 10 µM
Method in brief: as §1

[29] = compound: Cn1cnc2c(F)c(Nc3ccc(Br)cc3Cl)c(C(=O)NOCCO)cc21 [Selumetinib]; conditions: max 10 µM
Method in brief: as §1

[30] = compound: N#Cc1cnc(Nc2cc(NC[C@H]3CNCCO3)c(C(F)(F)F)cn2)cn1 [SRA737]; conditions: max 10 µM
Method in brief: as §1

[31] = compound: NC1(c2ccc(-c3nc4ccn5c(=O)[nH]nc5c4cc3-c3ccccc3)cc2)CCC1 [MK-2206]; conditions: max 10 µM
Method in brief: as §1

[32] = compound: Nc1ccn([C@@H]2O[C@H](CO)[C@@H](O)C2(F)F)c(=O)n1 [Gemcitabine]; conditions: max 0.3 µM
Method in brief: as §1

[33] = compound: O=C(Nc1ccc2[nH]nc(-c3ccncc3)c2c1)[C@@H]1CCN(CC(=O)N2CCN(c3ccc(-c4ncccn4)cc3)CC2)C1; conditions: max 5 µM
Method in brief: as §1

[34] = compound: O=C(c1cc(Cc2n[nH]c(=O)c3ccccc23)ccc1F)N1CCN(C(=O)C2CC2)CC1 [Olaparib]; conditions: max 10 µM
Method in brief: as §1

[35] = compound: O=c1[nH]cc(F)c(=O)[nH]1 [5-Fluorouracil]; conditions: max 20 µM
Method in brief: as §1

| Cell Line | IC50, cell viability 72 h [1] | IC50, cell viability 72 h [2] | IC50, cell viability 72 h ([3]; max 3 µM) | IC50, cell viability 72 h [4] | IC50, cell viability 72 h [5] | IC50, cell viability 72 h [6] | IC50, cell viability 72 h [7] | IC50, cell viability 72 h [8] | IC50, cell viability 72 h [9] | IC50, cell viability 72 h [10] | IC50, cell viability 72 h [11] | IC50, cell viability 72 h [12] | IC50, cell viability 72 h ([13]; max 3 µM) | IC50, cell viability 72 h [14] | IC50, cell viability 72 h [15] | IC50, cell viability 72 h [16] | IC50, cell viability 72 h [17] | IC50, cell viability 72 h [18] | IC50, cell viability 72 h [19] | IC50, cell viability 72 h [20] | IC50, cell viability 72 h [21] | IC50, cell viability 72 h [22] | IC50, cell viability 72 h [23] | IC50, cell viability 72 h [24] | IC50, cell viability 72 h [25] | IC50, cell viability 72 h [26] | IC50, cell viability 72 h [27] | IC50, cell viability 72 h [28] | IC50, cell viability 72 h [29] | IC50, cell viability 72 h [30] | IC50, cell viability 72 h [31] | IC50, cell viability 72 h [32] | IC50, cell viability 72 h [33] | IC50, cell viability 72 h [34] | IC50, cell viability 72 h [35] | IC50, cell viability 72 h ([3]; max 1 µM) | IC50, cell viability 72 h ([13]; max 1 µM) |
| --- | --- | --- | --- | --- | --- | --- | --- | --- | --- | --- | --- | --- | --- | --- | --- | --- | --- | --- | --- | --- | --- | --- | --- | --- | --- | --- | --- | --- | --- | --- | --- | --- | --- | --- | --- | --- | --- |
| SK-PN-DW (Other Solid Carcinomas) | > 10 µM | 4.78 µM | 1.59 µM | > 1 µM | 0.011 µM | > 10 µM | > 0.3 µM | 0.757 µM | > 2 µM | > 0.001 µM | 0.191 µM | 0.00405 µM | > 3 µM | > 1 µM | 0.119 µM | 1.53 µM | > 10 µM | 0.00583 µM | 0.199 µM | 0.562 µM | > 10 µM | > 10 µM | 4.41 µM | > 1 µM | 0.558 µM | 0.07 µM | > 10 µM | 4.42 µM | > 10 µM | 0.986 µM | > 10 µM | > 0.3 µM | > 5 µM | > 10 µM | 5.01 µM | – | – |
| TE-8 (Esophageal Squamous Cell Carcinoma) | > 10 µM | > 10 µM | – | 0.633 µM | 0.109 µM | > 10 µM | > 0.3 µM | > 1 µM | 0.362 µM | > 0.001 µM | > 1 µM | 0.169 µM | – | > 1 µM | 5.14 µM | > 10 µM | > 10 µM | 0.0243 µM | > 1 µM | > 1 µM | > 10 µM | > 10 µM | > 10 µM | > 1 µM | 4.15 µM | > 1 µM | > 10 µM | 2.65 µM | > 10 µM | > 10 µM | > 10 µM | > 0.3 µM | 3.84 µM | > 10 µM | > 20 µM | 0.503 µM | > 1 µM |
| VAL (B-Cell Non-Hodgkin's Lymphoma) | > 10 µM | 5.13 µM | 0.416 µM | > 1 µM | 0.0573 µM | 2.66 µM | > 0.3 µM | 0.0315 µM | 0.0919 µM | > 0.001 µM | 0.141 µM | 0.00177 µM | > 3 µM | 0.0365 µM | 0.0606 µM | 0.261 µM | > 10 µM | 0.00612 µM | 0.028 µM | 0.0618 µM | > 10 µM | 2.45 µM | 4.62 µM | > 1 µM | 1.03 µM | 0.446 µM | 8.52 µM | 2.28 µM | > 10 µM | 1.47 µM | 1.87 µM | 0.00894 µM | > 5 µM | 8.57 µM | > 20 µM | – | – |
